Columns and labels:
[1] = injection of the Supratrochlear nerve followed by SPG block; format: in vivo; settings: bupivacaine 0.5% injected to the Supratrochlear nerve, SPG block subsequently
Text: (§1) Another aspect of the invention is the combination of stimulation of SPG with branches of Trigeminal nerves, or occipital nerves. There is known C-2 and 3 connection with Trigeminal nerve and SPG and likely with C1.

[2] = injection of occipital nerves followed by SPG block; format: in vivo; settings: 0.5% injected into occipital nerves, then SPG block
Text: as §1

CCCCN1CCCCC1C(=O)Nc1c(C)cccc1C (centres unmarked) [bupivacaine]
result of subsequent SPG block [1]: better result with SPG block subsequently | headache [2]: headache was further decreased with SPG block

Reference: patent publication US20230028224A1, “Novel Topical Therapy” (priority 2019, published 2023)
